Assay type in all cases: cell-based
Assay [1] deals with TEAD reporter-containing human breast cancer cell line MCF7. The assay can be described thus: TEAD reporter (luciferase) assay. The note with it: TEAD reporter MCF7 cells, 24 hours treatment, 1% serum media. The gist of the method:
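Cells plated at 30,000/well overnight, then treated 24 h in 1% serum medium with 0.1% DMSO. CCK-8 viability read at 450 nm, then Dual-Glo luciferase luminescence; IC50 from non-linear regression of dose-response curves.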

Assay [2] has as its system MSTO-211H cells. The assay can be described thus: Proliferation assay (EdU incorporation), MSTO-211H. The note with it: Homo sapiens, 72 h, YAP-driven MSTO-211H (LATS1 mutation), 3 days with inhibitor, 1% serum. As for the experimental part:
(§1) The anti-proliferative activity of TEAD inhibitors was evaluated in cells with different properties for YAP; “YAP-driven” cells (MSTO-211H, NCI-H226) in which YAP located in the nucleus and “YAP-independent” cells (OCM1, NCI-H28) where YAP located in the cytoplasm. […] TEAD inhibitors were evaluated with cell lines with these YAP profiling and mutational status.
(§2) The next day, replace it with cell starvation medium containing 1% serum. After one day of growth in the starvation medium, the cells were incubated for 3 days with TEAD inhibitors in a concentration range of 0.01-10 μM. After 3 days, EdU (Invitrogen) at a concentration of 10 µM was added to the starvation medium and incubated for an additional 24 hours. After removing the starvation medium remaining in each well, wash the wells with PBS. Cells were fixed with 4% paraformaldehyde (Electron microscopy sciences) at room temperature for 20 minutes. After removing the fix solution remaining in each well, wash the wells with PBS and the cells were permeabilized for 40 minutes by adding 0.5% triton X-100 (Sigma Aldrich). After removing the permeabilization solution remaining in each well, the EdU labeling was performed according to the instructions of the manufacturer's instructions (Click-iT™ Cell Reaction Buffer Kit, Invitrogen). After the Click reaction for EdU labeling, nuclei were stained with […] (Thermo Scientific) for total cell count analysis. After plate preparation for detection, Image acquisition was performed using the ImageXpress Micro XLS. The acquired images were analyzed using MetaXpress software (molecular devices). Through this experimental method, it was possible to confirm the inhibitory activity of TEAD inhibitors by detection EdU incorporated into proliferating cells.
(§3) IC50 for cell proliferation inhibition activity are shown in the Table 2 below and designated within the following ranges. [+++: ≤0.1 μM, ++: >0.1 μM to ≤1 μM, +: >1 μM to ≤10μ, −: >10 μM]

Assay [3] has as its system NCI-H226 cells. Description: Proliferation assay (EdU incorporation), NCI-H226. Conditions: Homo sapiens, 72 h, YAP-driven NCI-H226 (NF2 mutation), 3 days with inhibitor, 1% serum. As for the experimental part:
as §1, §2, §3

Regarding `C=CC(=O)Nc1ccc2c(c1)c(/C=C/C1CCC(F)(F)CC1)cn2C` [Compound 21, (E)-N-(3-(2-(4,4-Difluorocyclohexyl)vinyl)-1-methyl-1H-indol-5-yl)acrylamide], the IC50 in assay [1] is not above 100 nM; in assay [2], 100 to 1000 nM; in assay [3] it was 100 to 1000 nM.

As for `C=CC(=O)Nc1cnc2c(c1)c(CCc1ccc(F)cc1)cn2C` [Example 63, N-(3-(4-Fluorophenethyl)-1-methyl-1H-pyrrolo[2,3-b]pyridin-5-yl)acrylamide], the IC50 in assay [1], in assay [2] and in assay [3] was not above 100 nM each time.

Turning to `C=CC(=O)Nc1cnc2c(c1)c(/C=C/C1CCC(F)(F)CC1)cn2C(C)C` [Compound 19, (E)-N-(3-(2-(4,4-Difluorocyclohexyl)vinyl)-1-isopropyl-1H-pyrrolo[2,3-b]pyridin-5-yl)acrylamide], the IC50 in assay [1] was not above 100 nM; in assay [2], 100 to 1000 nM; in assay [3] it was not above 100 nM.

Consider `C=CC(=O)Nc1cnc2c(c1)c(/C=C/c1ccc(F)cc1)cn2C` [Compound 47, (E)-N-(3-(4-Fluorostyryl)-1-methyl-1H-pyrrolo[2,3-b]pyridin-5-yl)acrylamide], for which the IC50 in assay [2] and in assay [3] was not above 100 nM in each case.

Turning to `C=CC(=O)Nc1ccc2c(c1)c(/C=C/c1ccc(Cl)cc1)nn2C` [Compound 2, (E)-N-(3-(4-Chlorostyryl)-1-methyl-1H-indazol-5-yl)acrylamide], the IC50 is 100 to 1000 nM in assay [1], not above 100 nM in assay [2] and not above 100 nM in assay [3].

On to `C=CC(=O)Nc1cnc2c(c1)c(-c1ccc(F)c(Cl)c1)cn2C` [Example 97, N-(3-(3-Chloro-4-fluorophenyl)-1-methyl-1H-pyrrolo[2,3-b]pyridin-5-yl)acrylamide], for which the IC50 in assay [1] was 100 to 1000 nM; in assay [2], not above 100 nM; in assay [3] it was not above 100 nM.

In the case of `C=CC(=O)Nc1cnc2c(c1)c(-c1ccc(CC)cc1)cn2C` [Example 89, N-(3-(4-Ethylphenyl)-1-methyl-1H-pyrrolo[2,3-b]pyridin-5-yl)acrylamide], the results for the IC50 in assay [1], in assay [2] and in assay [3] were 100 to 1000 nM, not above 100 nM and not above 100 nM, respectively.

Take `C=CC(=O)Nc1ccc2c(c1)c(/C=C/C1CCC(F)(F)CC1)nn2CC` [Compound 3, (E)-N-(3-(2-(4,4-Difluorocyclohexyl)vinyl)-1-ethyl-1H-indazol-5-yl)acrylamide]: the half-inhibitory concentration (IC50) in assay [1] is not above 100 nM; in assay [2] it was not above 100 nM; in assay [3], 100 to 1000 nM.

With `C=CC(=O)Nc1ccc2c(c1)c(/C=C/c1ccc(Cl)cc1)cn2C(C)C` [Compound 28, (E)-N-(3-(4-Chlorostyryl)-1-isopropyl-1H-indol-5-yl)acrylamide], the IC50 in assay [1] is 100 to 1000 nM; in assay [2], 100 to 1000 nM; in assay [3], not above 100 nM.

For the compound `C=CC(=O)Nc1cnc2c(c1)c(/C=C/c1ccc(Cl)cc1)cn2C(F)F` [Example 128, (E)-N-(3-(4-Chlorostyryl)-1-(difluoromethyl)-1H-pyrrolo[2,3-b]pyridin-5-yl)acrylamide], the IC50 in assay [2] and in assay [3] was 100 to 1000 nM in each case.

Take `C=CC(=O)Nc1ccc2c(c1)c(/C=C/C1CCC(F)(F)CC1)cn2C(C)C` [Compound 27, (E)-N-(3-(2-(4,4-Difluorocyclohexyl)vinyl)-1-isopropyl-1H-indol-5-yl)acrylamide]: the IC50 in assay [1] and in assay [2] was 100 to 1000 nM each time.

`C=CC(=O)Nc1cnc2c(c1)c(/C=C/C1CCC(F)(F)CC1)cn2CC` [Compound 17, (E)-N-(3-(2-(4,4-Difluorocyclohexyl)vinyl)-1-ethyl-1H-pyrrolo[2,3-b]pyridin-5-yl)acrylamide]: the IC50 was 100 to 1000 nM in assay [2] and not above 100 nM in assay [3].

For `C=CC(=O)Nc1cnc2c(c1)c(CCC1CCC(F)(F)CC1)cn2C` [Example 64, N-(3-(2-(4,4-Difluorocyclohexyl)ethyl)-1-methyl-1H-pyrrolo[2,3-b]pyridin-5-yl)acrylamide], the IC50 in assay [1] and in assay [2] was not above 100 nM in each case.

As to `C=CC(=O)Nc1cnc2c(c1)c(-c1cccc(/C=C/C3CCC(F)(F)CC3)c1)cn2C` [Example 85, (E)-N-(3-(3-(2-(4,4-Difluorocyclohexyl)vinyl)phenyl)-1-methyl-1H-pyrrolo[2,3-b]pyridin-5-yl)acrylamide], the IC50 in assay [1] and in assay [2] was 100 to 1000 nM in each case.

As to `C=CC(=O)Nc1cnc2c(c1)c(/C=C/c1ccc(Cl)s1)cn2C` [Example 81, (E)-N-(3-(2-(5-Chlorothiophen-2-yl)vinyl)-1-methyl-1H-pyrrolo[2,3-b]pyridin-5-yl)acrylamide], the IC50 was 100 to 1000 nM in assay [1] and not above 100 nM in assay [2].

In the case of `C=CC(=O)Nc1cnc2c(c1)c(-c1ccc(Cl)cc1)cn2C(F)F` [Example 132, N-(3-(4-Chlorophenyl)-1-(difluoromethyl)-1H-pyrrolo[2,3-b]pyridin-5-yl)acrylamide], the IC50 in assay [1] lay in the range of 1000 to 10000 nM; in assay [2], 100 to 1000 nM.

In the case of `C=CC(=O)Nc1cnc2c(c1)c(-c1ccc(C(F)(F)F)cc1)cn2C` [Compound 51, N-(1-Methyl-3-(4-(trifluoromethyl)phenyl)-1H-pyrrolo[2,3-b]pyridin-5-yl)acrylamide], the IC50 in assay [1] is 1000 to 10000 nM; in assay [2] it was not above 100 nM.

For the compound `C=CC(=O)Nc1cnc2c(c1)c(/C=C/C1CCC(F)(F)CC1)nn2C(C)C` [Compound 34, (E)-N-(3-(2-(4,4-Difluorocyclohexyl)vinyl)-1-isopropyl-1H-pyrazolo[3,4-b]pyridin-5-yl)acrylamide], the IC50 was not above 100 nM in assay [1] and 100 to 1000 nM in assay [2].

On to `C=CC(=O)Nc1cnc2c(c1)c(/C=C/c1ccc(Cl)cc1)cn2C1CCCC1` [Compound 10, (E)-N-(3-(4-Chlorostyryl)-1-cyclopentyl-1H-pyrrolo[2,3-b]pyridin-5-yl)acrylamide], for which the IC50 was 1000 to 10000 nM in assay [1] and 100 to 1000 nM in assay [2].

Regarding `C=CC(=O)Nc1cnc2c(c1)c(-c1ccc(SCC)cc1)cn2C` [Example 111, N-(3-(4-(Ethylthio)phenyl)-1-methyl-1H-pyrrolo[2,3-b]pyridin-5-yl)acrylamide], the IC50 in assay [1] was 100 to 1000 nM; in assay [2], not above 100 nM.

On to `C=CC(=O)Nc1cnc2c(c1)c(/C=C/c1ccc(Cl)cc1)nn2C(C)C` [Compound 35, (E)-N-(3-(4-Chlorostyryl)-1-isopropyl-1H-pyrazolo[3,4-b]pyridin-5-yl)acrylamide], for which the IC50 in assay [1] and in assay [2] was 100 to 1000 nM throughout.

In the case of `C=CC(=O)Nc1cnc2c(c1)c(-c1ccc(C3CC3)cc1)cn2C` [Example 106, N-(3-(4-Cyclopropylphenyl)-1-methyl-1H-pyrrolo[2,3-b]pyridin-5-yl)acrylamide], the IC50 in assay [1] is 100 to 1000 nM; in assay [2], not above 100 nM.

For `C=CC(=O)Nc1ccc2c(c1)c(/C=C/C1CCC(F)(F)CC1)nn2C(C)C` [Compound 5, (E)-N-(3-(2-(4,4-Difluorocyclohexyl)vinyl)-1-isopropyl-1H-indazol-5-yl)acrylamide], the IC50 in assay [1] and in assay [2] was 100 to 1000 nM each time.

Take `C=CC(=O)Nc1cnc2c(c1)c(/C=C/C1CCC(F)(F)CC1)cn2C(F)F` [Example 130, (E)-N-(3-(2-(4,4-Difluorocyclohexyl)vinyl)-1-(difluoromethyl)-1H-pyrrolo[2,3-b]pyridin-5-yl)acrylamide]: the IC50 in assay [1] and in assay [2] was 100 to 1000 nM throughout.

As for `C=CC(=O)Nc1cc(F)c2c(c1)c(/C=C/C1CCC(F)(F)CC1)cn2C` [Compound 36, (E)-N-(3-(2-(4,4-Difluorocyclohexyl)vinyl)-7-fluoro-1-methyl-1H-indol-5-yl)acrylamide], the IC50 in assay [1] is 100 to 1000 nM; in assay [2], not above 100 nM.

On to `C=C(F)C(=O)Nc1cnc2c(c1)c(/C=C/c1ccc(Cl)cc1)cn2C` [Example 118, (E)-N-(3-(4-Chlorostyryl)-1-methyl-1H-pyrrolo[2,3-b]pyridin-5-yl)-2-fluoroacrylamide], for which the IC50 is 1000 to 10000 nM in assay [1] and not above 100 nM in assay [2].

`C=CC(=O)Nc1ccc2c(c1)c(/C=C/c1ccc(Cl)cc1)cn2CC` [Compound 26, (E)-N-(3-(4-Chlorostyryl)-1-ethyl-1H-indol-5-yl)acrylamide]: the IC50 in assay [1] and in assay [2] was 100 to 1000 nM each time.

Regarding `[2H]C([2H])([2H])n1cc(/C=C/c2ccc(Cl)cc2)c2cc(NC(=O)C=C)cnc21` [Example 121, (E)-N-(3-(4-Chlorostyryl)-1-(methyl-d3)-1H-pyrrolo[2,3-b]pyridin-5-yl)acrylamide], the IC50 in assay [1] is 100 to 1000 nM; in assay [2] it was not above 100 nM.
